ChEMBL document CHEMBL5465560, “Selectivity Literature for EUbOPEN Chemogenomic Library” (2024)
Values belong to the compound of their own block, whether it stands above or below them.

Tests used:
[1] = molecular target: Serine/threonine-protein kinase MRCK gamma (Homo sapiens) (UniProt Q6DT37); settings: at 10 µM
[2] = molecular target: T1, Protein kinase C epsilon type (Homo sapiens) (UniProt Q02156); assay: Selectivity interaction (Ambit KINOMEscan and KiNATiv profiling in Jurkat cells) EUB0000090b PRKCE; format: cell-based; settings: at 1 µM
T1 sequence (whole entry): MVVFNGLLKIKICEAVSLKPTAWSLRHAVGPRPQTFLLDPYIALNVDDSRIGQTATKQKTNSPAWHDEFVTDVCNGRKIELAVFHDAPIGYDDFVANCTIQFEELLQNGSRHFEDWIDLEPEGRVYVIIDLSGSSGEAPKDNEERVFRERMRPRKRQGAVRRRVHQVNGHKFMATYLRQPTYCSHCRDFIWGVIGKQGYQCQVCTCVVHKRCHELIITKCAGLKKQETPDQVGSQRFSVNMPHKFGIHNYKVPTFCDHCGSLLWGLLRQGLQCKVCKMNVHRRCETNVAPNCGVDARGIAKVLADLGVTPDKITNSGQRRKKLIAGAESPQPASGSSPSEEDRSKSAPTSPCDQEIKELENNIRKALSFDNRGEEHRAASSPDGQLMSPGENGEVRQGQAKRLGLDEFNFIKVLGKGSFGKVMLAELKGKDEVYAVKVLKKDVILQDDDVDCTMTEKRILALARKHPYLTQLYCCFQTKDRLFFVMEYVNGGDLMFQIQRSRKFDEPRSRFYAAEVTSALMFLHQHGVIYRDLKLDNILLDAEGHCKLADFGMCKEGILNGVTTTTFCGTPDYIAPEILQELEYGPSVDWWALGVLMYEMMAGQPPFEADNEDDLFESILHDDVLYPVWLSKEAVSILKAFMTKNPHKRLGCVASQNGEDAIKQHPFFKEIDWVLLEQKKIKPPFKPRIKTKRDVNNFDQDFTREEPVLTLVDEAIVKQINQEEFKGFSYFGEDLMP

[3] = molecular target: Dual specificity mitogen-activated protein kinase kinase 2 (Homo sapiens) (UniProt P36507); assay: Selectivity interaction (ActivX KiNativ screen (kinase selectivity in THP-1 cell lysates)) EUB0000639a MAP2K2; format: subcellular; settings: lysate, at 0.01 µM
[4] = molecular target: Cyclin-dependent kinase 16 (Homo sapiens) (UniProt Q00536); assay: Selectivity interaction (ActivX KiNativ screen (kinase selectivity in THP-1 cell lysates)) EUB0000639a CDK16; format: subcellular; settings: lysate, at 0.04 µM
[5] = molecular target: Serine/threonine-protein kinase MARK2 (Homo sapiens) (UniProt Q7KZI7); assay: Selectivity interaction (Kinase panel (Z-LYTE Assay)) EUB0001632a MARK2; settings: at 10 µM
[6] = molecular target: T2, Mitogen-activated protein kinase kinase kinase 7 (Homo sapiens) (UniProt O43318); assay: Selectivity interaction (KinomeScan (DiscoverX)) EUB0000595a MAP3K7; settings: at 10 µM
T2 sequence (whole entry): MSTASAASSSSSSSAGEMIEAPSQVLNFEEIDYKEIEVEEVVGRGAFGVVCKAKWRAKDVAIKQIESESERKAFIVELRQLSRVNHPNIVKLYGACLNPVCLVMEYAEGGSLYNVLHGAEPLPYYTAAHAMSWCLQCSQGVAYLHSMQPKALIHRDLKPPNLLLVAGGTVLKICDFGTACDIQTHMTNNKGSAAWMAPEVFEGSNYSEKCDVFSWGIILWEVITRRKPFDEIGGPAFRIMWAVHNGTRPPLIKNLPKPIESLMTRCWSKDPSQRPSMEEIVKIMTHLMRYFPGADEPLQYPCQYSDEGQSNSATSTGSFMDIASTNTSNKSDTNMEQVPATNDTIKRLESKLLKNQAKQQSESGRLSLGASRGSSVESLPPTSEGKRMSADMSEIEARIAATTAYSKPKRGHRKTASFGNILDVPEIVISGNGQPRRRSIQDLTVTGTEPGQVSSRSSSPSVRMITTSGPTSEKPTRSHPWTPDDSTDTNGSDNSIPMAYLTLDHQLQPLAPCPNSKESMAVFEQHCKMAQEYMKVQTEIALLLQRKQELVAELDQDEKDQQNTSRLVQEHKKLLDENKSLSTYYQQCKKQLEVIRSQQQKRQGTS

[7] = molecular target: T3, Mitogen-activated protein kinase kinase kinase 12 (Homo sapiens) (UniProt Q12852); assay: Selectivity interaction (KinomeScan (DiscoverX)) EUB0001079a MAP3K12; settings: at 1 µM
T3 sequence (whole entry): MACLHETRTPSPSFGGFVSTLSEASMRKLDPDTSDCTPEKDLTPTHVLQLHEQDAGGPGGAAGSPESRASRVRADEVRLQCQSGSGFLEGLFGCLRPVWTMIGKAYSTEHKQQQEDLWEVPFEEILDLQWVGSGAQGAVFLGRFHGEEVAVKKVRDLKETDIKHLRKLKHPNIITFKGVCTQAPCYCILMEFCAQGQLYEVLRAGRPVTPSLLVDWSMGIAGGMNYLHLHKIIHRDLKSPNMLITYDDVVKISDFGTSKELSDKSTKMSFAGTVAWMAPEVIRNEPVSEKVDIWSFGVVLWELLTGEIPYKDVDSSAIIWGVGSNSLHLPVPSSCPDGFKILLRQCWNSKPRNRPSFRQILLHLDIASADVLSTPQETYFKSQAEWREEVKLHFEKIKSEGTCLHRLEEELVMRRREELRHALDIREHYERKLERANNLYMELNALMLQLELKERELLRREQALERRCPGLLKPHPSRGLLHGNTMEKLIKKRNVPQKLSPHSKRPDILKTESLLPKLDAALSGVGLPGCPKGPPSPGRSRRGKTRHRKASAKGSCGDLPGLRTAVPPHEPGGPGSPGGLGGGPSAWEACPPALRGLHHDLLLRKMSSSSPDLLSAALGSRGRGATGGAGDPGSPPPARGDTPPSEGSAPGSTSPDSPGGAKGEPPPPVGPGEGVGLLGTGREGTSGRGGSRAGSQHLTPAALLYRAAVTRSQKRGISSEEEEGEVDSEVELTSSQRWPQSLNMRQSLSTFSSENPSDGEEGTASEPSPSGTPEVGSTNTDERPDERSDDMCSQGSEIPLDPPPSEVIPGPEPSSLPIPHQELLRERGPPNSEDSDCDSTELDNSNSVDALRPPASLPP

[8] = molecular target: Serine/threonine-protein kinase 38 (Homo sapiens) (UniProt Q15208); assay: Selectivity interaction (ActivX KiNativ screen (ex vivo kinase selectivity in human PBMCs)) EUB0001619a STK38; format: cell-based; settings: PBMC, at 1 µM
Sequence of Serine/threonine-protein kinase 38 (Homo sapiens) (Q15208 2-465 limits assumed): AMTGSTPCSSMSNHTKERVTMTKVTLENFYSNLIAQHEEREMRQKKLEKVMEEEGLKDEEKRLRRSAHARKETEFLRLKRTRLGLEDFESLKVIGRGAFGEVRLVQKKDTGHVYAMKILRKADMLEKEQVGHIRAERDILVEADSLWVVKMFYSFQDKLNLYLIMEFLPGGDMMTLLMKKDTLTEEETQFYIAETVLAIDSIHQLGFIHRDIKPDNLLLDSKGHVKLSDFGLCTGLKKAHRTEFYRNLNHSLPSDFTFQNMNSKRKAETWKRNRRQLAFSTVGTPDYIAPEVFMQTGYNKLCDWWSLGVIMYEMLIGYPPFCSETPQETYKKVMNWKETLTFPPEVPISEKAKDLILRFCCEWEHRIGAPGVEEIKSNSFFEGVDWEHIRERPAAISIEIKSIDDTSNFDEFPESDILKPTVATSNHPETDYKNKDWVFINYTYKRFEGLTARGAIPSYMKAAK

Sequence of Serine/threonine-protein kinase MRCK gamma (Homo sapiens) (Q6DT37 whole entry): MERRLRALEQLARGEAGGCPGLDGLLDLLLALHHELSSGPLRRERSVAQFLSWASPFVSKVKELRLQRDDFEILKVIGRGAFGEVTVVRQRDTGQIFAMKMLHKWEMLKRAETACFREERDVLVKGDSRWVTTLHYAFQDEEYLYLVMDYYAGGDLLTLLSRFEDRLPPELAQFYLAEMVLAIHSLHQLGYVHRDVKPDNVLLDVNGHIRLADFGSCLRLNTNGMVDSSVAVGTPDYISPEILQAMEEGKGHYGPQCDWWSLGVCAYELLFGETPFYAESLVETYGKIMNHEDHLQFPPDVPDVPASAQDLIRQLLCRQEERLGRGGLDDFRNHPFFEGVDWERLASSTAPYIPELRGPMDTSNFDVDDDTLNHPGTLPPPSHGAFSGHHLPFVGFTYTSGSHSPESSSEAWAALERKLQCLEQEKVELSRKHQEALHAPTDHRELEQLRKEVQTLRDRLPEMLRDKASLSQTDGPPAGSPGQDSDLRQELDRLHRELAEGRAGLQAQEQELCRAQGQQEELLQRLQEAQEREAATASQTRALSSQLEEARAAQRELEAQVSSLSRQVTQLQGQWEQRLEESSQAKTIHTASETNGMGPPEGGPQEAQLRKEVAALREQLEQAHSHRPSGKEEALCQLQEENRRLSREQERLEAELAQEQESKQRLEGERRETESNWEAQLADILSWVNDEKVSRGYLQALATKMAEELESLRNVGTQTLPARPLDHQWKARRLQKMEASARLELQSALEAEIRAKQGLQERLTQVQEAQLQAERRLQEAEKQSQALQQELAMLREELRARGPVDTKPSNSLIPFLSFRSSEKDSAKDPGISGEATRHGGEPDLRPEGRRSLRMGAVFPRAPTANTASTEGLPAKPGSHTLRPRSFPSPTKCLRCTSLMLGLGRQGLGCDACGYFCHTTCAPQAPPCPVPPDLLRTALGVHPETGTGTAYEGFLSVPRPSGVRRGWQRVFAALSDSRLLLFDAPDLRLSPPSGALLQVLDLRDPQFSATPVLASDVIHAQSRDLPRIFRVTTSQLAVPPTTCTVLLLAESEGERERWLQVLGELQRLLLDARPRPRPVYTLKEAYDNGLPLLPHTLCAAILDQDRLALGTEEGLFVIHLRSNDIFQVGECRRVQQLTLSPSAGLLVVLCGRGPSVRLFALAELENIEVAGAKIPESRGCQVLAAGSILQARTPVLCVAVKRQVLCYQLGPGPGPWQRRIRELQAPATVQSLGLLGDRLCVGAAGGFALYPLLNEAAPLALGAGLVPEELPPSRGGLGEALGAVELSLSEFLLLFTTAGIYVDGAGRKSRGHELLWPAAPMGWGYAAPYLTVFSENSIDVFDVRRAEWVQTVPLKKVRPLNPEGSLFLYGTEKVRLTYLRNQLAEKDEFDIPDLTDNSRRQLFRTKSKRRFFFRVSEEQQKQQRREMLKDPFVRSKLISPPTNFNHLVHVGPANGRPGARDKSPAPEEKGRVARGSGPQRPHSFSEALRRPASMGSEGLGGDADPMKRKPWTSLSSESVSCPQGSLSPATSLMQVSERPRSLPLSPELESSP
Sequence of Dual specificity mitogen-activated protein kinase kinase 2 (Homo sapiens) (P36507 whole entry): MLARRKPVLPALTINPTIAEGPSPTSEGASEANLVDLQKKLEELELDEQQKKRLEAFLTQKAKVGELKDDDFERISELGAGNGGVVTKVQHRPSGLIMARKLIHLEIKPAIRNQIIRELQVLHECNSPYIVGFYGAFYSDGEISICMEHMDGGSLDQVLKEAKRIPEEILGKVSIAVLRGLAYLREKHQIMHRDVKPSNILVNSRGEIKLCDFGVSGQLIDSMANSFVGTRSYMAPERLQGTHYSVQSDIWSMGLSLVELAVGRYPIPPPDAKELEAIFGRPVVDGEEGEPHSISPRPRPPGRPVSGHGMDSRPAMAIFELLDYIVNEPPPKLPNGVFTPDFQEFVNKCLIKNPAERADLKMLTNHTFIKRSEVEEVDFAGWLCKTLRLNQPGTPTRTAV
Sequence of Serine/threonine-protein kinase MARK2 (Homo sapiens) (Q7KZI7 whole entry): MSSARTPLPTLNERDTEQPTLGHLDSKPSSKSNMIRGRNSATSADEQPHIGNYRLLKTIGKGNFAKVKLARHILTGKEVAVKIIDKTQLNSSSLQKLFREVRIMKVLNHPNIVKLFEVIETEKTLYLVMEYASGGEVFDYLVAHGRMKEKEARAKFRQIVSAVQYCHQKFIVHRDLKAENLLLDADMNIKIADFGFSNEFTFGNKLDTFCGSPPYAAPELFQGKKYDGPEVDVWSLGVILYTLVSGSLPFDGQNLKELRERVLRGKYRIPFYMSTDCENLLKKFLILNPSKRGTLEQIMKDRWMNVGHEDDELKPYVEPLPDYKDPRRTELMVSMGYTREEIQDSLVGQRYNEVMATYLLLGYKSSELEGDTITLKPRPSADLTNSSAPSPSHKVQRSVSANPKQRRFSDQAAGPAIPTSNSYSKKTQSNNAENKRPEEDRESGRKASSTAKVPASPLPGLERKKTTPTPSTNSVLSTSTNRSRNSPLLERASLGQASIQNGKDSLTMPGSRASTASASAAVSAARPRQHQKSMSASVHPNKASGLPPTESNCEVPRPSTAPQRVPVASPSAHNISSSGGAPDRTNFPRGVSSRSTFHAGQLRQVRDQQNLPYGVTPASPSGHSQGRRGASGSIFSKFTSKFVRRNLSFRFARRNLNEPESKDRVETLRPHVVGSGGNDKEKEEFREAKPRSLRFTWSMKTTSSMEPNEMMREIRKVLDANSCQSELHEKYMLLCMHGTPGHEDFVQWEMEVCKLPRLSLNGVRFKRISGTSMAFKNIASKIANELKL
Sequence of Cyclin-dependent kinase 16 (Homo sapiens) (Q00536 whole entry): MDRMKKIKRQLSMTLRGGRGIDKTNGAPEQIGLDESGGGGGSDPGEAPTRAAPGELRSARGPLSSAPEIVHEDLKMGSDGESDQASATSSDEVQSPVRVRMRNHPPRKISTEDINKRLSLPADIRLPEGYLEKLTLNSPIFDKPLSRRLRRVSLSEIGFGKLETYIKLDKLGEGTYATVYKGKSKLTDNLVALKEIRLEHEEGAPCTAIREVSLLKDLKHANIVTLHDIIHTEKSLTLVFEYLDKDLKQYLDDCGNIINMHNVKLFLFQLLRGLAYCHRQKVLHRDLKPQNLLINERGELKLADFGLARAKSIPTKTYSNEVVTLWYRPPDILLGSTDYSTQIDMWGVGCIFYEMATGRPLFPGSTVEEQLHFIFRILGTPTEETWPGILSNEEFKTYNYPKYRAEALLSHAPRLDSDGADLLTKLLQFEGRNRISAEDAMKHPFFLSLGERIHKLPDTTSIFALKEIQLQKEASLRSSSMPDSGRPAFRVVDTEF

SMILES: Cc1cc([C@@H](C)Nc2ccccc2C(=O)O)c2nc(N3CCOCC3)cc(=O)n2c1 [AZD-6482]
% of control [1]: 100%

SMILES: CN(C)C/C=C/C(=O)Nc1ccc(C(=O)N2CCCC(Nc3ncc(Cl)c(-c4c[nH]c5ccccc45)n3)C2)cc1 (stereo not drawn)
% of control [2]: 99%

% of inhibition [3]: -2%
% of inhibition [4]: 0.5%
SMILES: CC[C@@H]1[C@H](F)C(=O)N[C@@H]1COc1nccc2cc(C(N)=O)c(OC)cc12 [ZIMLOVISERTIB]

% of control [5]: 5.56%
SMILES: Cn1cc(-n2cnc3c(NCc4nc5cc(Cl)c(Cl)cc5[nH]4)nc(N4CCOCC4)nc32)cn1

SMILES: COCC(=O)NC/C=C/c1ccc2ncnc(Nc3ccc(Oc4ccc(C)nc4)c(C)c3)c2c1 [CP-724714]
% of control [6]: 100%

SMILES: Nc1cnc(N2CCc3cc(S(=O)(=O)Nc4c(F)cc(Cl)cc4F)cc(N4CCCC4=O)c32)nc1 [TP-020n]
% of control [7]: 100%

SMILES: N#Cc1cccc(-c2c[nH]c3ncnc(N4CCOCC4)c23)c1
% of inhibition [8]: 2%
